Results from patent US20250388575A1, “HETEROBIFUNCTIONAL COMPOUNDS AND METHODS OF TREATING DISEASE” (Halda Therapeutics OpCo, Inc., priority 2022, published 2025).
pIC50, pKd: −log10 of the molar value. Read-outs that look alike come from different tables or passages of the source.

Assays:
androgen receptor = androgen receptor (Homo sapiens, UniProt P10275); assay: Assay for binding affinity to androgen receptor ([3H]methyltrienolone radioligand, cell cytosol); settings: binding to the androgen receptor, 1 nM [3H]methyltrienolone, 24 hr at 4° C.
Method: Fractions of cell cytosol (106 cell/point) were incubated for 24 hr at 4° C. with 1 nM [^3H]methyltrienolone in the absence or presence of the test compound in a buffer containing 25 mM Hepes-Tris (pH 7.4), 1 mM EDTA, 10 mM Na2MoO4, 2 mM DTT, 5 µM triamcinolone acetonide, and 10% glycerol. Nonspecific binding was determined in the presence of 1 μM testosterone. Following incubation, the samples were filtered rapidly under vacuum through glass fiber filters (GF/B, Packard) presoaked with 0.3% PEI and rinsed several times with ice-cold 50 mM Tris-HCl using a 96-sample cell harvester (Unifilter, Packard). The filters were dried then counted for radioactivity in a scintillation counter (Topcount, Packard) using a scintillation cocktail (Microscint 0, Packard). The results are expressed as a percent inhibition of the control radioligand specific binding. The standard reference compound is testosterone, which is tested in each experiment at several concentrations to obtain a competition curve from which its IC50 is calculated.

VCaP cells = assay: Cellular growth inhibition assay for VCaP cells, CellTiter-Glo; type: cell-based, human; settings: VCaP cells, 72 hours, CellTiter-Glo, read-out: GI50
How it was run: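 GI50 values come from four-parameter curve fits of luminescence data normalized to a zero baseline. Compound, in medium with 0.5% DMSO, was added one day after plating and left for 72 h before CellTiter-Glo 2.0 addition.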

[1] = system: T-Rex 293 cell line SC3 cells having increased expression of androgen receptor protein; assay: Cellular growth inhibition, T-Rex 293 SC3 cells with increased androgen receptor expression (doxycycline), CellTiter-Glo; type: cell-based; settings: T-Rex 293 SC3 cells with increased androgen receptor expression (exposed to 10 ng/mL doxycycline), 72 hours, CellTiter-Glo; read-out: GI50
How it was run: (§1)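 SC3, a T-Rex 293 clone with doxycycline-inducible wild-type androgen receptor, was seeded in phenol red-free DMEM with 10% charcoal-dextran FBS, with or without 10 ng/mL doxycycline. Compound added at 24 h (0.5% DMSO) for 72 h at 37° C. CellTiter-Glo 2.0 luminescence; GI50 from four-parameter fit.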

[2] = system: T-Rex 293 cell line SC3 cells lacking increased expression of androgen receptor protein; assay: Cellular growth inhibition, T-Rex 293 SC3 cells lacking increased androgen receptor expression (no doxycycline), CellTiter-Glo; type: cell-based; settings: T-Rex 293 SC3 cells lacking increased androgen receptor expression (not exposed to doxycycline), 72 hours, CellTiter-Glo; read-out: GI50
How it was run: as §1

[3] = molecular target: progesterone receptor ligand binding domain (LBD) (Homo sapiens (Human), UniProt P06401); assay: FP assay for binding affinity to progesterone receptor (PolarScreen Progesterone Receptor Competitor Assay); settings: GST-tagged PR LBD, Fluormone tracer, fluorescence polarization, 2 hours at room temperature
Method: Compounds were tested using the PolarScreen™ Progesterone Receptor Competitor Assay Kit (Life Technologies Cat #A15905 or a15906), as per the manufacturer's instructions. Briefly, GST-tagged PR LBD, Fluormone tracer, and compound were mixed and incubated for 2 hours at room temperature in the dark. Following incubation, the plates were spun at 3000×g for 30 seconds, then sealed with an optical adhesive cover, and fluorescence polarization was measured using appropriate excitation and emission filters with an EnVision Plate Reader (Perkin Elmer). Compound concentration vs. mP value were plotted in Prism (GraphPad). A four-parameter non-linear regression curve fit was applied to dose-response data to determine the half-maximal inhibitory concentration (IC50) for each test compound.

T47D cells = assay: Cellular growth inhibition assay for T47D cells, CellTiter-Glo; type: cell-based, human; settings: 72 hours treatment, CellTiter-Glo 2.0
How it was run: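 Luminescence from CellTiter-Glo 2.0 after 72 h of compound exposure gives the viability signal. Cells grew in insulin-supplemented (0.2 units/mL) DMEM with 10% FBS and were treated one day after seeding at 0.5% DMSO. GI50 values come from four-parameter nonlinear regression.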

BRD4-BD1 = BRD4-BD1 (Homo sapiens (Human), UniProt O60885); assay: bromoKdELECT assay for binding affinity to BRD4-BD1; settings: 11-point 3-fold dilution
Method: (§2) Compounds were tested using a bromoKdELECT assay. T7 phage strains displaying bromodomains were grown in parallel in 24-well blocks in an E. coli host derived from the BL21 strain. E. coli were grown to log-phase and infected with T7 phage from a frozen stock (multiplicity of infection=0.4) and incubated with shaking at 32° C. until lysis (90-150 minutes). The lysates were centrifuged (5,000×g) and filtered (0.2 μm) to remove cell debris. Streptavidin-coated magnetic beads were treated with biotinylated small molecule or acetylated peptide ligands for 30 minutes at room temperature to generate affinity resins for bromodomain assays. The liganded beads were blocked with excess biotin and washed with blocking buffer (SeaBlock (Pierce), 1% BSA, 0.05% Tween 20, 1 mM DTT) to remove unbound ligand and to reduce nonspecific phage binding. Binding reactions were assembled by combining bromodomains, liganded affinity beads, and test compounds in 1× binding buffer (17% SeaBlock, 0.33×PBS, 0.04% Tween 20, 0.02% BSA, 0.004% Sodium azide, 7.4 mM DTT). Test compounds were prepared as 1000× stocks in 100% DMSO. Kds were determined using an 11-point 3-fold compound dilution series with one DMSO control point. All compounds for Kd measurements are distributed by acoustic transfer (non-contact dispensing) in 100% DMSO. The compounds were then diluted directly into the assays such that the final concentration of DMSO was 0.09%. All reactions performed in polypropylene 384-well plates. Each was a final volume of 0.02 ml. The assay plates were incubated at room temperature with shaking for 1 hour and the affinity beads were washed with wash buffer (1×PBS, 0.05% Tween 20). The beads were then resuspended in elution buffer (1×PBS, 0.05% Tween 20, 2 μM non-biotinylated affinity ligand) and incubated at room temperature with shaking for 30 minutes. The bromodomain concentration in the eluates was measured by qPCR.

BRD4-BD2 = BRD4-BD2 (Homo sapiens (Human), UniProt O60885); assay: bromoKdELECT assay for binding affinity to BRD4-BD2; settings: 11-point 3-fold dilution
Method: as §2

Sequence of progesterone receptor ligand binding domain (LBD) (P06401 679-913): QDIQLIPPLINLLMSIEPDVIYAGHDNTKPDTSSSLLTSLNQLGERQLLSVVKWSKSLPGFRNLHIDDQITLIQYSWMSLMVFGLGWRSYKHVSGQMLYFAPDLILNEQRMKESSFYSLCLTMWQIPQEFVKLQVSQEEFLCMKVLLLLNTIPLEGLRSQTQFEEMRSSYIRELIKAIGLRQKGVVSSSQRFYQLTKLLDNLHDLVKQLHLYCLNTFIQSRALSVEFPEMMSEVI
Sequence of androgen receptor (P10275 whole entry, looked up): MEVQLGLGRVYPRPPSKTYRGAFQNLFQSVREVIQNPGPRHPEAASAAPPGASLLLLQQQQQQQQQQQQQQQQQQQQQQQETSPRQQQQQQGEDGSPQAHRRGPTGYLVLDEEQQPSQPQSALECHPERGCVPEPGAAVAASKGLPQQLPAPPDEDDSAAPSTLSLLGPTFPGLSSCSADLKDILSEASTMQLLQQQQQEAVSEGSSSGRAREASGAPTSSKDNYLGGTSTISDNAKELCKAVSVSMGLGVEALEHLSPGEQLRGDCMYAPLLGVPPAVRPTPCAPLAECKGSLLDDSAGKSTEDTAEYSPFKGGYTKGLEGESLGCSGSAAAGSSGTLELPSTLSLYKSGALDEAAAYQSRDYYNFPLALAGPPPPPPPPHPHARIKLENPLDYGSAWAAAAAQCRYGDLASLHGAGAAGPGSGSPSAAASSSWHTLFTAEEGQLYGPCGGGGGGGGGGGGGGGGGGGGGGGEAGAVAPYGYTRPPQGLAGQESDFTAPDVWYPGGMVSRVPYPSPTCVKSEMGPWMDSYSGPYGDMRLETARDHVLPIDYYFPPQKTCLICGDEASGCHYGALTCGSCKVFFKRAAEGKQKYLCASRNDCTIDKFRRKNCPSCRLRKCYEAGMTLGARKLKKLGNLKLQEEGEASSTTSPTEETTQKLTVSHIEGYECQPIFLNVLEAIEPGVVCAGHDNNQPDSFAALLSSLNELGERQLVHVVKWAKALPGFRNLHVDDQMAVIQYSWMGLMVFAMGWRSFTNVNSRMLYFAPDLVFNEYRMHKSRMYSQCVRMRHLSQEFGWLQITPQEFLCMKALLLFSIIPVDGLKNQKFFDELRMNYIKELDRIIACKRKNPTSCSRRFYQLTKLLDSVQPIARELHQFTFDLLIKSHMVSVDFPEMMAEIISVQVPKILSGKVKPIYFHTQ

| SMILES | pKd (androgen receptor) | GI50 (VCaP cells; Homo sapiens) [nM] | GI50 [1] [nM] | GI50 [2] [nM] | pIC50 [3] | GI50 (T47D cells; Homo sapiens) [nM] | GI50 (VCaP cells) [nM] | GI50 (T47D cells) [nM] | pKd (BRD4-BD1) | pKd (BRD4-BD2) |
| --- | --- | --- | --- | --- | --- | --- | --- | --- | --- | --- |
| CCS(=O)(=O)Nc1ccc(Oc2cccc(OCCOC3CCN(c4ccc(C(=O)N[C@H]5CC[C@H](Oc6ccc(C#N)c(Cl)c6)CC5)cc4)CC3)c2)c(-c2cn(C)c(=O)c3[nH]ccc23)c1 [I-6, N-[4-(3-chloro-4-cyano-phenoxy)cyclohexyl]-4-[4-[2-[3-[4-(ethylsulfonylamino)-2-(6-methyl-7-oxo-1H-pyrrolo[2,3-c]pyridin-4-yl)phenoxy]phenoxy]ethoxy]-1-piperidyl]benzamide] | 5.60 to 6.30 | < 500 | < 500 | < 500 |  |  |  |  |  |  |
| CCS(=O)(=O)Nc1ccc(Oc2cccc(OCCOC3CCN(c4cnc(C(=O)N[C@H]5CC[C@H](Oc6ccc(C#N)c(Cl)c6)CC5)nc4)CC3)c2)c(-c2cn(C)c(=O)c3[nH]ccc23)c1 [I-10, N-[4-(3-chloro-4-cyano-phenoxy)cyclohexyl]-5-[4-[2-[3-[4-(ethylsulfonylamino)-2-(6-methyl-7-oxo-1H-pyrrolo[2,3-c]pyridin-4-yl)phenoxy]phenoxy]ethoxy]-1-piperidyl]pyrimidine-2-carboxamide] | 6.30 to 7.30 | < 500 | < 500 | > 3000 |  |  |  |  |  |  |
| Cn1cc(-c2cc(C(C)(C)O)ccc2Oc2ccc(CCOC3CCN(c4ccc(C(=O)N[C@H]5CC[C@H](Oc6ccc(C#N)c(Cl)c6)CC5)nn4)CC3)cc2F)c2cc[nH]c2c1=O [I-106] |  | 500 to 1500 | < 500 | < 500 | 6.30 to 7.30 | < 500 |  |  |  |  |
| Cn1cc(-c2cc(C(C)(C)O)ccc2Oc2ccc(C3CN(c4ccc(C(=O)N[C@H]5CC[C@H](Oc6ccc(C#N)c(Cl)c6)CC5)nn4)C3)cc2)c2cc[nH]c2c1=O [I-104] | > 7.30 |  | < 500 | 500 to 1500 |  |  | < 500 | < 500 |  |  |
| Cn1cc(-c2cc(S(=O)(=O)CCCCOC3CCN(c4ccc(C(=O)NC5CCC(Oc6ccc(C#N)c(Cl)c6)CC5)nn4)CC3)ccc2Oc2ccc(F)cc2F)c2cc[nH]c2c1=O (centres unmarked) [I-92, N-[4-(3-chloro-4-cyano-phenoxy)cyclohexyl]-6-[4-[4-[4-(2,4-difluorophenoxy)-3-(6-methyl-7-oxo-1H-pyrrolo[2,3-c]pyridin-4-yl)phenyl]sulfonylbutoxy]-1-piperidyl]pyridazine-3-carboxamide] |  | > 3000 | < 500 | > 3000 | 6.30 to 7.30 |  |  |  | < 5.60 | < 5.60 |
| Cn1cc(-c2cc(C(C)(C)O)ccc2Oc2cc(F)c(CCOC3CCN(c4ccc(C(=O)N[C@H]5CC[C@H](Oc6ccc(C#N)c(Cl)c6)CC5)nn4)CC3)cc2F)c2cc[nH]c2c1=O [I-107] |  | < 500 | < 500 | < 500 | 6.30 to 7.30 | < 500 |  |  |  |  |
| CCS(=O)(=O)Nc1ccc(Oc2cccc(OCCOC3CCN(c4ccc(C(=O)N[C@H]5CC[C@H](Oc6ccc(C#N)c(Cl)c6)CC5)nc4)CC3)c2)c(-c2cn(C)c(=O)c3[nH]ccc23)c1 [I-9, N-[4-(3-chloro-4-cyano-phenoxy)cyclohexyl]-5-[4-[2-[3-[4-(ethylsulfonylamino)-2-(6-methyl-7-oxo-1H-pyrrolo[2,3-c]pyridin-4-yl)phenoxy]phenoxy]ethoxy]-1-piperidyl]pyridine-2-carboxamide] | 5.60 to 6.30 | < 500 | < 500 | < 500 |  |  |  |  |  |  |
| Cn1cc(-c2cc(C(C)(C)O)ccc2Oc2ccc(OCC3CCN(c4ccc(C(=O)NC5CCC(Oc6ccc(C#N)c(Cl)c6)CC5)nn4)CC3)cc2)ccc1=O (centres unmarked) [I-235, N-[4-(3-chloro-4-cyano-phenoxy)cyclohexyl]-6-[4-[[4-[4-(1-hydroxy-1-methyl-ethyl)-2-(1-methyl-6-oxo-3-pyridyl)phenoxy]phenoxy]methyl]-1-piperidyl]pyridazine-3-carboxamide] |  | < 500 | < 500 | > 3000 | 6.30 to 7.30 | 500 to 1500 |  |  |  |  |
| Cn1cc(-c2cc(C(C)(C)O)ccc2Oc2ccc(CCC3CCN(c4cnc(C(=O)N[C@H]5CC[C@H](Oc6ccc(C#N)c(Cl)c6)CC5)cn4)CC3)cc2)c2cc[nH]c2c1=O [I-119] | 5.60 to 6.30 |  | < 500 | < 500 |  |  | < 500 | < 500 |  |  |
| CCS(=O)(=O)Nc1ccc(Oc2cccc(OCCOC3CCN(c4cnc(C(=O)N[C@H]5CC[C@H](Oc6ccc(C#N)c(Cl)c6)CC5)cn4)CC3)c2)c(-c2cn(C)c(=O)c3[nH]ccc23)c1 [I-8, N-[4-(3-chloro-4-cyano-phenoxy)cyclohexyl]-5-[4-[2-[3-[4-(ethylsulfonylamino)-2-(6-methyl-7-oxo-1H-pyrrolo[2,3-c]pyridin-4-yl)phenoxy]phenoxy]ethoxy]-1-piperidyl]pyrazine-2-carboxamide] | 5.60 to 6.30 | < 500 | < 500 | < 500 |  |  |  |  |  |  |
| CCS(=O)(=O)Nc1ccc(Oc2cccc(OCCOC3CCN(c4ccc(C(=O)N[C@H]5CC[C@H](Oc6ccc(C#N)c(Cl)c6)CC5)cn4)CC3)c2)c(-c2cn(C)c(=O)c3[nH]ccc23)c1 [I-7, N-[4-(3-chloro-4-cyano-phenoxy)cyclohexyl]-6-[4-[2-[3-[4-(ethylsulfonylamino)-2-(6-methyl-7-oxo-1H-pyrrolo[2,3-c]pyridin-4-yl)phenoxy]phenoxy]ethoxy]-1-piperidyl]pyridine-3-carboxamide] | 5.60 to 6.30 | < 500 | < 500 | < 500 |  |  |  |  |  |  |
| CC(C)N(C1CCN(c2ccc(C(=O)N[C@H]3CC[C@H](Oc4ccc(C#N)c(Cl)c4)CC3)nn2)CC1)C1CN(c2cccc(Oc3ccc(C(C)(C)O)cc3-c3cn(C)c(=O)c4[nH]ccc34)c2F)C1 [I-141] |  |  | < 500 | 500 to 1500 | 6.30 to 7.30 |  | > 3000 | 500 to 1500 |  |  |
